Data on 22 compounds can be found in patent publication US11066414B2, “Cot modulators and methods of use thereof” (Gilead Sciences, Inc., priority 2015, dated 2021).

Read-outs that look alike come from different tables or passages of the source.

One test deals with TNFα. Put plainly: Cot Monocyte TNFα Cell Based Assay. The settings on record: Homo sapiens, Monocyte, read-out: EC50 TNF, LPS-stimulated human monocytes, TNFα.
The target in another test is Human Cot (Homo sapiens (Human), UniProt P41279). Put plainly: High Throughput Cot Biochemical Assay. The settings on record: Cot HTRF (TR-FRET) biochemical assay. On the technique in general: In TR-FRET formats the signal depends on donor and acceptor labels being close together.
Sequence of Human Cot (P41279 30-397): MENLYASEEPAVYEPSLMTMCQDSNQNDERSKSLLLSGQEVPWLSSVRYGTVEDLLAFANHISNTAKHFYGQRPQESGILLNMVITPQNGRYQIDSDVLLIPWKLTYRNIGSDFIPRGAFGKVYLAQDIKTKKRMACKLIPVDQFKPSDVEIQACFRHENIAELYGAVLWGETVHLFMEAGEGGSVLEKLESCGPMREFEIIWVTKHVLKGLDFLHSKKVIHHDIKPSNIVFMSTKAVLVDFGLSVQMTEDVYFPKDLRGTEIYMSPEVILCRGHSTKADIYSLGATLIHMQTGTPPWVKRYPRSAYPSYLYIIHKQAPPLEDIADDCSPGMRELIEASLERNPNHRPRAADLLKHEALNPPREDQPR

The EC50 is the midpoint of the concentration-response curve. For orientation: IC50 means the point on the concentration scale where inhibition reaches its midpoint. For `CCN1CCC(n2cc([C@@H](Nc3cc(Cl)c4ncc(C#N)c(Nc5ccc(F)c(Cl)c5)c4c3)c3sccc3Cl)nn2)CC1` [Example 389, (R)-8-chloro-4-((3-chloro-4-fluoro-phenyl)amino)-6-(((3-chlorothiophen-2-yl)(1-(1-ethylpiperidin-4-yl)-1H-1,2,3-triazol-4-yl)methyl)amino)-quinoline-3-carbonitrile], the EC50 with TNFα was determined as 328 nM. Besides, at Human Cot (IC50 HTRF), the half-inhibitory concentration (IC50) was 11 nM.
`Cn1cnc(C(Nc2cc(Cl)c3ncc(C#N)c(Nc4ccc(F)c(Cl)c4)c3c2)c2cccnc2)c1` (centres unmarked) [Example 403, 8-chloro-4-((3-chloro-4-fluoro-phenyl)amino)-6-(((1-methyl-1H-imidazol-4-yl)(pyridin-3-yl)methyl)-amino)quinoline-3-carbonitrile]: the EC50 with TNFα was 290 nM. The IC50 on Human Cot (read-out: IC50 HTRF) was determined as 9 nM.
Take `N#Cc1cnc2c(Cl)cc(NC(c3cccnc3)c3cn(C4CCNCC4)nn3)cc2c1Nc1ccc(F)c(Cl)c1` (centres unmarked) [Example 405, 8-chloro-4-((3-chloro-4-fluoro-phenyl)amino)-6-(((1-(piperidin-4-yl)-1H-1,2,3-triazol-4-yl)(pyridin-3-yl)methyl)amino)quinoline-3-carbonitrile]: in the test on TNFα, the EC50 stood at 1040 nM. The same compound had an IC50 against Human Cot (IC50 HTRF) of 2 nM.
For `CC(C)(C)CNc1c(C#N)cnc2c(Br)cc(N[C@H](c3cn(C4(C(N)=O)CC4)nn3)c3cccc4ncsc34)cc12` [Example 408, (S)-1-(4-(benzo[d]thiazol-7-yl((8-bromo-3-cyano-4-(neopentylamino)-quinolin-6-yl)amino)methyl)-1H-1,2,3-triazol-1-yl)cyclopropane-1-carboxamide], the EC50 in the test on TNFα was determined as 88 nM. Half-maximal inhibition against Human Cot (IC50 HTRF) (IC50) required 1 nM.
Taken in the same sequence, the figures for `CC(C)(C)CNc1c(C#N)cnc2c(C#N)cc(N[C@H](c3cn(C4(C(N)=O)CC4)nn3)c3cccc4ncsc34)cc12` [Example 409, (S)-1-(4-(benzo[d]thiazol-7-yl((3,8-dicyano-4-(neopentylamino)quinolin-6-yl)amino)methyl)-1H-1,2,3-triazol-1-yl)cyclopropane-1-carboxamide] were 559 nM and 1 nM.
Taken in the same sequence, the figures for `CC(C)(C)CNc1c(C#N)cnc2c(C#N)cc(N[C@@H](c3cn(C4CC4)nn3)c3cccc4ncsc34)cc12` [Example 410, (R)-6-((benzo[d]thiazol-7-yl(1-cyclopropyl-1H-1,2,3-triazol-4-yl)methyl)amino)-4-(neopentyl-amino)quinoline-3,8-dicarbonitrile] were 1000 nM and 113 nM.
Regarding `CC[C@@H](Nc1c(C#N)cnc2c(C#N)cc(N[C@H](c3cn(C4CC4)nn3)c3cccc4ncsc34)cc12)c1ccccc1` [Example 411, 6-(((S)-benzo[d]thiazol-7-yl(1-cyclopropyl-1H-1,2,3-triazol-4-yl)methyl)amino)-4-(((R)-1-phenylpropyl)amino)quinoline-3,8-dicarbonitrile], in the test on TNFα, the EC50 was 76 nM. This compound also showed an IC50 at Human Cot (IC50 HTRF) of 5 nM.
Turning to `CC[C@@H](Nc1c(C#N)cnc2c(C#N)cc(N[C@H](c3cn(C4(C(F)(F)F)CC4)nn3)c3cccc4ncsc34)cc12)c1ccccc1` [Example 412, 6-(((S)-benzo[d]thiazol-7-yl(1-(1-(trifluoromethyl)-cyclopropyl)-1H-1,2,3-triazol-4-yl)methyl)amino)-4-(((R)-1-phenylpropyl)amino)quinoline-3,8-dicarbonitrile], the EC50 in the test on TNFα was 157 nM. The compound further yielded an IC50 against Human Cot (IC50 HTRF) of 7 nM.
`[2H]C(Nc1cc(Cl)c2ncc(C#N)c(N[C@H](CCC#N)c3ccccc3)c2c1)(c1cn(C2(C(F)(F)F)CC2)nn1)c1ccc(F)nc1C` (stereo partly drawn) [Example 413, 8-chloro-4-(((R)-3-cyano-1-phenyl-propyl)amino)-6-(((6-fluoro-2-methyl-pyridin-3-yl)(1-(1-(trifluoromethyl)-cyclopropyl)-1H-1,2,3-triazol-4-yl)methyl-d)amino)quinoline-3-carbonitrile]: in the test with TNFα, the EC50 amounted to 44 nM. For the same compound, the IC50 on Human Cot (IC50 HTRF) was found to be 4 nM.
Turning to `N#CCC[C@@H](Nc1c(C#N)cnc2c(C#N)cc(N[C@H](c3cn(C4CC4)nn3)c3csc4c3CCN(C3COC3)C4)cc12)c1ccccc1` [Example 414, 4-(((R)-3-cyano-1-phenylpropyl)amino)-6-(((S)-(1-cyclopropyl-1H-1,2,3-triazol-4-yl)(6-(oxetan-3-yl)-4,5,6,7-tetrahydro-thieno[2,3-c]pyridin-3-yl)methyl)amino)-quinoline-3,8-dicarbonitrile], the EC50 with TNFα was 35 nM. Further, the IC50 against Human Cot (IC50 HTRF) was found to be 1 nM.
Consider `CC(C)(C)CNc1c(C#N)cnc2c(Cl)cc(N[C@H](c3cn(C4(C#N)CC4)nn3)c3cccc4ncsc34)cc12` [Example 415, (S)-6-((benzo[d]thiazol-7-yl(1-(1-cyanocyclopropyl)-1H-1,2,3-triazol-4-yl)methyl)amino)-8-chloro-4-(neopentylamino)quinoline-3-carbonitrile], for which the EC50 with TNFα is 67 nM. Also, the IC50 against Human Cot (IC50 HTRF) came to 3 nM.
In the same order, the values of `CC(C)(C)CNc1c(C#N)cnc2c(Cl)cc(N[C@H](c3cn(C4(C(N)=O)CC4)nn3)c3cccc4ncsc34)cc12` [Example 416, (S)-1-(4-(benzo[d]thiazol-7-yl((8-chloro-3-cyano-4-(neopentylamino)quinolin-6-yl)amino)methyl)-1H-1,2,3-triazol-1-yl)cyclopropane-1-carboxamide] are 124 nM and 2 nM.
Taken in the same sequence, the figures for `CC(C)(C)CNc1c(C#N)cnc2c(Cl)cc(N[C@H](c3cn(C4(C(F)(F)F)CC4)nn3)c3cccc4ncsc34)cc12` [Example 417, (S)-6-((benzo[d]thiazol-7-yl(1-(1-(trifluoromethyl)cyclopropyl)-1H-1,2,3-triazol-4-yl)methyl)amino)-8-chloro-4-(neopentylamino)quinoline-3-carbonitrile] were 218 nM and 9 nM.
Regarding `CC(C)(C)CNc1c(C#N)cnc2c(Cl)cc(N[C@H](c3cn(C4CC4)nn3)c3cccc4ncsc34)cc12` [Example 418, (S)-6-((benzo[d]thiazol-7-yl(1-cyclopropyl-1H-1,2,3-triazol-4-yl)methyl)amino)-8-chloro-4-(neopentylamino)quinoline-3-carbonitrile], the EC50 in the test with TNFα was found to be 45 nM. The compound also registered an IC50 against Human Cot (IC50 HTRF) of 2 nM.
In the same order, the values of `CC(C)(C)CNc1c(C#N)cnc2c(Cl)cc(N[C@H](c3cn(C4CCN(C(C)(C)C)CC4)nn3)c3cccc4ncsc34)cc12` [Example 419, (S)-6-((benzo[d]thiazol-7-yl(1-(1-(tert-butyl)piperidin-4-yl)-1H-1,2,3-triazol-4-yl)methyl)amino)-8-chloro-4-(neopentylamino)quinoline-3-carbonitrile] are 49 nM and 3 nM.
`CC(C)(C)CNc1c(C#N)cnc2c(C#N)cc(N[C@H](c3cn(C4CCN(C(C)(C)C)CC4)nn3)c3cccc4ncsc34)cc12` [Example 420, (S)-6-((benzo[d]thiazol-7-yl(1-(1-(tert-butyl)piperidin-4-yl)-1H-1,2,3-triazol-4-yl)methyl)amino)-4-(neopentyl-amino)quinoline-3,8-dicarbonitrile]: in the test with TNFα, the EC50 worked out at 25 nM. This compound also showed an IC50 at Human Cot (IC50 HTRF) of 2 nM.
Taken in the same sequence, the figures for `CC(C)(C)CNc1c(C#N)cnc2c(Cl)cc(N[C@H](c3cn(C4(C(F)F)CC4)nn3)c3cccc4ncsc34)cc12` [Example 421, (S)-6-((benzo[d]thiazol-7-yl(1-(1-(difluoromethyl)cyclopropyl)-1H-1,2,3-triazol-4-yl)methyl)amino)-8-chloro-4-(neopentylamino)quinoline-3-carbonitrile] were 100 nM and 4 nM.
Taken in the same sequence, the figures for `CC(C)(C)CNc1c(C#N)cnc2c(Cl)cc(N[C@H](c3cn(C4CC4)nn3)c3cccn4nccc34)cc12` [Example 422, (S)-8-chloro-6-(((1-cyclopropyl-1H-1,2,3-triazol-4-yl)(pyrazolo[1,5-a]pyridin-4-yl)methyl)amino)-4-(neopentylamino)-quinoline-3-carbonitrile] were 57 nM and 2 nM.
In the same order, the values of `[2H][C@](Nc1cc(Cl)c2ncc(C#N)c(NCC(C)(C)C)c2c1)(c1ccc(F)nc1)c1cn(CC(=O)NS(C)(=O)=O)nn1` [Example 425, (S)-2-(4-(((8-chloro-3-cyano-4-(neopentylamino)quinolin-6-yl)amino)(6-fluoropyridin-3-yl)methyl-d)-1H-1,2,3-triazol-1-yl)-N-(methyl-sulfonyl)acetamide] are 1000 nM and 7 nM.
Consider `Cn1cc2c([C@H](Nc3cc(Cl)c4ncc(C#N)c(NCC(C)(C)C)c4c3)c3cn(C4CC4)nn3)cccc2n1` [Example 426, (S)-8-chloro-6-(((1-cyclopropyl-1H-1,2,3-triazol-4-yl)(2-methyl-2H-indazol-4-yl)methyl)amino)-4-(neopentylamino)-quinoline-3-carbonitrile], for which the EC50 with TNFα came to 95 nM. Moreover, the IC50 at Human Cot (IC50 HTRF) was determined as 2 nM.
Consider `Cc1nc2cccc([C@H](Nc3cc(C#N)c4ncc(C#N)c(NCC(C)(C)C)c4c3)c3cn(C4CC4)nn3)c2s1` [Example 427, (S)-6-(((1-cyclopropyl-1H-1,2,3-triazol-4-yl)(2-methylbenzo[d]thiazol-7-yl)methyl)amino)-4-(neopentylamino)-quinoline-3,8-dicarbonitrile], for which the EC50 with TNFα was 41 nM. In addition, the IC50 at Human Cot (IC50 HTRF) was 2 nM.
`Cc1nc2cccc([C@H](Nc3cc(C#N)c4ncc(C#N)c(NCC(C)(C)C)c4c3)c3cn(C4(C(F)(F)F)CC4)nn3)c2s1` [Example 430, (S)-6-(((2-methylbenzo[d]thiazol-7-yl)(1-(1-(trifluoromethyl)cyclopropyl)-1H-1,2,3-triazol-4-yl)methyl)amino)-4-(neopentylamino)quinoline-3,8-dicarbonitrile]: the EC50 in the test with TNFα was found to be 214 nM. The IC50 at Human Cot (IC50 HTRF) worked out at 5 nM.
